Like-named read-outs stand apart in the source and are kept apart here.
Columns and labels:
[1] = system: tryptamine-induced bilateral tonic seizures; test: combined test in rats: tryptamine (TRY); type: in vivo, rat (adult male Wistar rats); settings: Rattus norvegicus, sc, 1.5 h, read-out: ED50 (TRY)--rat
Procedure: (§1) The activity of the subject compounds as […] is evidenced by the experimental data obtained in at least one of two different test procedures, viz., the combined apomorphine-, tryptamine- and norepinephrine tests in rats and the apomorphine test in dogs.
(§2) The combined apomorphine (APO)-, tryptamine (TRY)- and norepinephrine (NOR) test in rats.
(§3) The experimental animals used in this test were adult male Wistar rats (weight 240±10 g). After an overnight fast, the animals were treated subcutaneously (1 ml/100 g) with an aqueous solution of the compound under investigation (time=zero) and put in isolated observation cages. Thirty minutes thereafter (time=30 minutes) 1.25 mg/kg of apomorphine hydrochloride (APO) was injected intravenously and the rats were observed over a 1 hour period for the presence or absence of the following apomorphine-induced phenomena; agitation and stereotypic chewing. At the end of this 1 hour period (time=90 minutes) the same animals were injected intravenously with 40 mg/kg of tryptamine (TRY) and the presence of the typical tryptamine-induced bilateral tonic seizures was noted. Two hours after pretreatment (time=120 minutes) finally, the same animals were challenged with 1.25 mg/kg intravenously of norephinephrine (NOR) and possible mortality was looked for up to 60 minutes later.
(§4) The table 1 gives the ED50 -value of a number of the compounds under consideration. As used herein, the ED50 -value represents the dose which protects 50% of the animals from apomorphine-, tryptamine- or norepinephrine-induced phenomena.

[2] = system: norepinephrine-induced mortality; test: combined test in rats: norepinephrine (NOR); type: in vivo, rat (adult male Wistar rats); settings: Rattus norvegicus, sc, 2 h; norepinephrine 1.25 mg/kg i.v. at 120 minutes; dose protecting 50% of animals
Procedure: as §1, §2, §3, §4

[3] = system: apomorphine-induced agitation and stereotypic chewing; test: combined test in rats: apomorphine (APO); type: in vivo, rat (adult male Wistar rats); settings: Rattus norvegicus, sc, 0.5 h, read-out: ED50 (APO)--rat
Procedure: as §1, §2, §3, §4

[4] = system: apomorphine-induced emesis; test: apomorphine test in dogs (APO-dog); type: in vivo, beagle dog; settings: Canis lupus familiaris, sc, read-out: ED50 (APO)--dog
Source text: as §1
The apomorphine test in dogs (APO-dog).
The method used is described by P. A. J. Janssen and C. J. E. Niemegeers in Arzneim.-Forsch. (Drug Res.), 9, 765-767 (1959). […]
The table 1 gives the ED50 -values of a number of the compounds under consideration. As used herein, the ED50 value represents the dose which protects 50% of the animals from emesis.

[5] = s.c., tryptamine 40 mg/kg i.v. at 90 minutes, dose protecting 50% of animals
[6] = s.c., apomorphine 1.25 mg/kg i.v. 30 minutes after treatment, dose protecting 50% of animals
[7] = duration 1 h, apomorphine 0.31 mg/kg s.c., dose protecting 50% from emesis
[8] = duration 4 h, apomorphine 0.31 mg/kg s.c., dose protecting 50% from emesis

Row | SMILES | ED50 [1, 5] [mg/kg] | ED50 [2] [mg/kg] | ED50 [3, 6] [mg/kg] | ED50 [4, 7] [mg/kg] | ED50 [4, 8] [mg/kg] | ED50 ([4]; duration 16 h, apomorphine 0.31 mg/kg s.c., dose protecting 50% from emesis) [mg/kg] | ED50 [1] [mg/kg] | ED50 [3] [mg/kg] | ED50 ([4]; 1 h) [mg/kg] | ED50 ([4]; 2 h) [mg/kg] | ED50 ([4]; 4 h) [mg/kg] | ED50 ([4]; 8 h) [mg/kg] | ED50 ([4]; 16 h) [mg/kg]
1 | Cc1nc2n(c(=O)c1CCN1CCC(c3noc4cc(F)ccc34)CC1)CCS2 [Compound 14, 6-[2-[4-(6-fluoro-1,2-benzisoxazol-3-yl)-1-piperidinyl]ethyl]-2,3-dihydro-7-methyl-5H-thiazolo[3,2-a]pyrimidin-5-one] | 0.005 | 0.31 | 0.02 | 0.004 | 0.004 | – | – | – | – | – | – | – | –
2 | Cc1nc2scc(C)n2c(=O)c1CCN1CCC(c2noc3cc(F)ccc23)CC1 [Compound 13, 6-[2-[4-(6-fluoro-1,2-benzisoxazol-3-yl)-1-piperidinyl]ethyl]-3,7-dimethyl-5H-thiazolo[3,2-a]pyrimidin-5-one] | 0.02 | 0.08 | 0.02 | 0.015 | 0.06 | – | – | – | – | – | – | – | –
3 | Cc1nc2ccccn2c(=O)c1CCN1CCC(c2noc3cc(F)ccc23)CC1 [Compound 11, 3-[2-[4-(6-fluoro-1,2-benzisoxazol-3-yl)-1-piperidinyl]ethyl]-2-methyl-4H-pyrido[1,2-a]pyrimidin-4-one] | 0.01 | 0.16 | 0.02 | 0.015 | 0.03 | – | – | – | – | – | – | – | –
4 | Cc1nc2n(c(=O)c1CCN1CCC(c3noc4cc(F)ccc34)CC1)CCCS2 [Compound 15, 7-[2-[4-(6-fluoro-1,2-benzisoxazol-3-yl)-1-piperidinyl]ethyl]-3,4-dihydro-8-methyl-2H,6H-pyrimido[2,1-b][1,3]thiazin-6-one] | 0.01 | 0.31 | 0.08 | 0.015 | 0.06 | – | – | – | – | – | – | – | –
5 | Cc1nc2sccn2c(=O)c1CCN1CCC(c2noc3cc(F)ccc23)CC1 [Compound 2, 6-[2-[4-(6-fluoro-1,2-benzisoxazol-3-yl)-1-piperidinyl]ethyl]-7-methyl-5H-thiazolo[3,2-a]pyrimidin-5-one] | 0.005 | 0.31 | 0.02 | 0.004 | 0.008 | 0.16 | – | – | – | – | – | – | –
6 | Cc1nc2n(c(=O)c1CCN1CCC(c3noc4cc(F)ccc34)CC1)CCCC2 [Compound 1, 3-[2-[4-(6-fluoro-1,2-benzisoxazol-3-yl)-1-piperidinyl]ethyl]-6,7,8,9-tetrahydro-2-methyl-4H-pyrido[1,2-a]pyrimidin-4-one] | – | 0.16 | – | – | – | – | 0.08 | 0.08 | 0.008 | 0.005 | 0.015 | 0.018 | 0.02

Source: US4804663A, “3-piperidinyl-substituted 1,2-benzisoxazoles and 1,2-benzisothiazoles” (Janssen Pharmaceutica N.V., priority 1986, dated 1989)
